Data set [1] has as its system collagen-induced arthritis (CIA) model. Put plainly: Arthritis Study A: collagen-induced arthritis (Example 11). In kind it is in vivo, DBA/1J mice. The note with it: DBA/1J mice, 20 mg/kg s.c. twice a week for 12 weeks. How it is done:
The effect of inhibition of Factor XI and its role in fibrin accumulation in the joints leading to joint inflammation and rheumatoid arthritis was evaluated in a murine collagen-induced arthritis (CIA) model. […] Arthritis induced in mice administered collagen can be visually assessed and clinically scored as described by Marty et al. (J Clin Invest, 107:631-640, 2001) where 1 point is given for each swollen digit except the thumb (maximum, 4), 1 point is given for the tarsal or carpal joint, and 1 point is given for the metatarsal or metacarpal joint with a maximum score of […]. Each paw was graded individually, the cumulative clinical arthritic score per mouse reaching a maximum of 22 points
In a group of 15 DBA/1J mice, 20 mg/kg of ISIS 404071 was injected subcutaneously twice a week for 12 weeks. One control group of 15 mice was injected with 20 mg/kg of ISIS 403102 twice a week for 12 weeks. Two control groups of 15 mice each were injected with PBS twice a week for 12 weeks. Two weeks after the first oligonucleotide dose, type II bovine collagen (Chondrex Inc, Redmond, Wash.) was mixed with complete Freund's adjuvant, homogenized on ice and the emulsion, containing 100 μg of collagen, was injected subcutaneously at the base of the tail in the Factor XI group, the Factor VII group and one of the PBS control groups. A booster injection containing 100 μg collagen type II in incomplete Freund's adjuvant was injected subcutaneously at the base of the tail at a different injection site on day 21 after the first collagen injection in these groups.
Starting 35 days from the first collagen injection, mice in all groups were examined daily for the visual appearance of arthritis, such as swelling and stiffness, in peripheral joints. The results are presented in Table 20 (expressed as a percentage of the PBS control) and in FIGS. 1-3.
‘Incidence of CIA’ refers to the percentage of mice in each group that had CIA at day 40. The ‘percentage of paws affected’ refers to the percentage of paws out of a total of 60 paws in each group of mice that were affected with arthritis. ‘Average number of affected paws’ refers to the number of affected paws in mice that were diagnosed to have arthritis. The ‘clinical severity of CIA’ was scored as described by Marty et al. (J Clin Invest, 107:631-640, 2001) and as follows: 1 point for each swollen digit except the thumb (maximum, 4), 1 point for the tarsal or carpal joint, and 1 point for the metatarsal or metacarpal joint with a maximum score of 6 for a hindpaw and 5 for a forepaw. Each paw was graded individually, the cumulative clinical arthritic score per mouse reaching a maximum of 22 points.

Data set [2] relates to DSS-induced colitis model. Put plainly: Colitis Study A: DSS-induced colitis, body weight and colon length (Example 12). In kind it is in vivo, Swiss Webb mice. How it is done: The effect of antisense oligonucleotide inhibition of Factor XI and its role in ameliorating colitis was evaluated in a dextran sulfate sodium (DSS)-induced colitis model. Administration of DSS to animals is a well known method to induce […] and has been previously described by Okayasu et al. (Gastroenterology, 1990, 98:694-702), Cooper et al. (Lab Invest, 1993, 69:238-249) and Dieleman et al. (Clin Exp Immunol, 1998, 114:385-391).
In groups of 8 Swiss Webb mice, 20 mg/kg of ISIS 404071 or ISIS 403102 were injected subcutaneously twice a week for 3 weeks. Two control groups of 8 mice each were injected with PBS twice a week for 3 weeks. After the oligonucleotide treatments, 4% DSS in water was administered ad libitum for 6 days to the experimental groups and one PBS control group.
Mice in all groups were weighed at day 0. Mice were sacrificed at the end of the study on day 7 after DSS was administered and their body weights and colon lengths were measured. Results are presented in Table 24 (expressed as a percentage of the PBS control) and FIG. 7.
Colon length was assessed in the DSS-induced colitis mice.

The subject of data set [3] is DSS-induced colitis model. In words: Colitis Study A: colon tissue histopathology. The following applies: FIG. 8, listed as Factor VII ASO.
The subject of data set [4] is soluble CD40 ligand (CD40L). In words: Colitis Study E: CD40L plasma levels. The following applies: Colitis Study E, day 7. In kind it is in vivo, Swiss Webb mice. How it is done: (§1) Two groups 8 Swiss Webb mice were dosed with 40 mg/kg of ISIS 404071 injected subcutaneously twice a week for 3 weeks. Two control groups of 8 Swiss Webb mice were dosed with PBS subcutaneously twice a week for 3 weeks. Both the ASO treated groups and one of the control groups were then given 4% DSS in distilled water for 7 days ad libitum. One of the ASO and DSS treated groups was also given intravenous injections of 20 μg of recombinant human Factor XI protein (Haematologic Technologies Inc.) for 7 consecutive days, starting the day before DSS treatment. Mice were sacrificed at the end of the study on day 7 after DSS was administered.
Plasma levels of soluble CD40 ligand (CD40L) are known to be elevated in cases of inflammatory bowel disease (Ludwiczek, O. et al., Int. J. Colorectal Disease. 2003. 18: 142-147) and may be considered a marker of intestinal inflammation. The effect of antisense inhibition of Factor XI on CD40L levels in the plasma was evaluated at the end of the study on day 7 after DSS was administered and the results are presented in Table 39. CD40L levels in plasma were measured by commercially available ELISA kits (Bender MedSystems, Vienna, Austria, eBioscience, San Diego, Calif.) according to the manufacture's protocols.

In data set [5] the test system is IFN-γ, IL-10, IL-12, IL-1β, IL-2, IL-4, IL-5, TNF-α, KC. Put plainly: Colitis Study E: cytokine levels in colon (multiplex ELISA). The following applies: Colitis Study E, day 7. In kind it is in vivo, Swiss Webb mice. Here is the method: as §1
The cytokine levels of IFN-γ, IL-10, IL-12, IL-1β, IL-2, IL-4, IL-5, TNF-α, and keratinocyte chemoattractant (KC) were measured in the colon of the mice groups at the end of the study on day 7 after DSS was administered. Colons were homogenized on ice in PBS supplemented with protease inhibitors (Sigma, St. Louis, Mo.) and extracted with rotation at 4° C. for 1 hour. After removal of insoluble material by centrifugation, colon homogenates were used for the cytokine analysis by multiplex ELISA (Mouse TH1/TH2 9-Plex Ultra-Sensitive Kit, Meso Scale Discovery, Gaithersburg, Md.) according to the manufacture's protocol. Cytokine levels in colon extracts were normalized to the protein concentration measured by protein assay kit (BioRad, Hercules, Calif.). The levels of pro-inflammatory cytokines, IFN-γ, IL-1β, IL-10, IL-2, IL-5, TNF-α, and KC were elevated by DSS administration, and were decreased by treatment with ISIS 404071.

Data set [6] has as its system bradykinin. In words: Colitis Study E: bradykinin levels in colon. In kind it is in vivo, Swiss Webb mice. The following applies: Colitis Study E, day 7. How it is done:
as §1
The effect of antisense inhibition of Factor XI on kinin levels in the colon was evaluated (Phoenix Pharmaceuticals, Burlingame, Calif.) at the end of the study on day 7 after DSS was administered and the results are presented in Table 40.

Data set [7] deals with DSS-induced colitis model. In words: Colitis Study E: weight change, colon length, stool analysis. In kind it is in vivo, Swiss Webb mice. The following applies: Colitis Study E, day 7. How it is done:
as §1
Mice in all groups were weighed at day 0 and at the end of the study. […] Mice were sacrificed at the end of the study on day 7 after DSS was administered and their colon lengths were measured.

Data set [8] deals with thrombin-antithrombin (TAT) complexes. Put plainly: Colitis Study E: TAT levels. In kind it is in vivo, Swiss Webb mice. The following applies: Colitis Study E, day 7. How it is done:
as §1
Mice with dextran sodium sulfate (DSS)-induced colitis have elevated level of thrombin-antithrombin (TAT) complexes in blood (Anthoni, C. et al., J. Exp. Med. 204: 1595-1601, 2007) and is also observed in patients with ulcerative colitis (Kume, K. et al., Intern Med. 2007. 46: 1323-9). The effect of antisense inhibition of Factor XI on TAT levels in the […] was evaluated (Siemens Healthcare Diagnostics, Deerfield, Ill.) at the end of the study on day 7 after DSS was administered and the results are presented in Table 38.

The mark [9] stands for this setting: DSS-induced colitis, day 7, 20 mg/kg s.c. twice a week for 3 weeks, expressed as a percentage of the PBS control.

In the oligonucleotide strings, read from the 5' end, every base follows the letter of its sugar. An asterisk marks phosphorothioate; unmarked linkages are phosphodiester. Other units and linkages are bracketed, terminal groups are in braces. A string of capitals states the bases alone. e = 2'-O-(2-methoxyethyl) (MOE); [5mC] = 5-methylcytosine; d = 2'-deoxy (DNA)

“CCATAGAACAGCTTCACAGG (e[5mC]*e[5mC]*eA*eT*eA*dG*dA*dA*d[5mC]*dA*dG*d[5mC]*dT*dT*d[5mC]*eA*e[5mC]*eA*eG*eG) [ISIS 403102, reference compound]”: the “Average no. of paws affected” value in data set [1] (in mice diagnosed with arthritis) was determined as 1. The “% of paws affected” value in data set [1] (out of 60 paws per group) is on record as 19%. Further, the “% of CIA” value in data set [1] (percentage of mice in group with CIA at day 40) was found to be 54%. The “Clinical severity of CIA” value in data set [1] (score of Marty et al., maximum 22 points) was 4. For the same substance, the “body weight (in words)” value in data set [2] (Colitis Study A, FIG. 7A/7B) was “had a decrease in body weight”. Moreover, the “colon length (in words)” value in data set [2] (Colitis Study A, FIG. 7C) is on record as “had a decrease in colon length”. Moreover, in data set [2] (setting [9]), the Body weight change is recorded as −7% and the Colon length change is recorded as −34%. The “colon histology, lesions (in words)” value in data set [3] is “shows the same histology as the DSS control”.

Take “recombinant Factor XI protein: recombinant human Factor XI protein (Haematologic Technologies Inc.)”: the “CD40L levels in plasma (in words)” value in data set [4] is listed as “restoration of CD40L levels to that of the DSS treated mice”. The “pro-inflammatory cytokine levels in colon: IFN-γ, IL-1β, IL-10, IL-2, IL-5, TNF-α, KC (in words)” value in data set [5] is given as “restoration of cytokine levels to that of the DSS treated mice”. For the same substance, the “bradykinin levels (in words)” value in data set [6] is on record as “restoration of bradykinin levels to that of the DSS treated mice”. Also, in data set [7], the “colon length (in words)” value is listed as “increase in colon length due to treatment with ISIS 404071 is eliminated” and the “stool softness/diarrhea (in words)” value is on record as “amelioration of diarrhea in mice treated with ISIS 404071 is eliminated”. Besides, in data set [8], the “TAT levels (in words)” value was “near restoration of TAT levels to that of the DSS treated mice”.

Values taken from patent US20120083522A1, “MODULATION OF INFLAMMATORY RESPONSES BY FACTOR XI” (Isis Pharmaceuitcals, inc., priority 2009, published 2012).
